Results taken from patent US12564547B2, “Compositions, formulations, and methods for skin treatment” (Oddity Labs, LLC, priority 2022, dated 2026).

Columns and labels:
Type in all cases: cell-based
Nrf2-ARE pathway = test: KeratinoSens Nrf2-ARE reporter assay (ARE-luciferase activity); conditions: across a concentration range
Protocol: (§1) The safety/toxicology profiles of a compound or salt of the present disclosure was evaluated via a series of in vitro genotoxicity assays, including the SOS-chromotest to determine bacterial genotoxicity, and the TK.6 micronucleus assay to determine chromosomal damage and forward mutations. Standard reactive oxygen species (ROS) and caspase 3/7 assay were conducted to determine general cellular toxicity. Moreover, a series of sensitization tests were conducted to predict any potential skin sensitivity. These include the direct peptide reactivity assay to evaluate haptenization, the KeratinoSens reporter assay to determine any potential sensitivity via the activation of a cytoprotective pathway, and an immunological assay using human immature monocyte-derived dendritic cells to evaluate any potential immunogenicity.
The Nrf2-ARE pathway is a master regulator of cytoprotective responses to oxidative stress, and is an early indicator of skin sensitization. Nrf2 (nuclear factor erythroid 2-related factor) is a transcription factor that binds to antioxidant responsive elements (ARE). By fusing ARE to the light-producing luciferase gene, a KeratinoSens Nrf2-ARE reporter assay was constructed whereby luciferase signal is directly correlated to Nrf2-ARE pathway activation. […] FIG. 6B describes an in vitro dendritic cell sensitization test. Dendritic cell activation is widely-associated with downstream immunogenicity. CD14+ cells from human donor peripheral mononuclear cells were harvested and differentiated them into immature monocyte-derived DCs using granulocyte-macrophage colony-stimulating factor (GM-CSF) and interleukin-4 (IL-4), then treated with the lead compounds. Killed E. Coli and TNF-α were used as positive controls. FIG. 6C-FIG. 6E are example plots showing change in HLA-DR expression. Expression of CD80 (FIG. 6C), PDL-1 (FIG. 6D), and CD141 (FIG. 6E) as quantified via mean fluorescence intensity (MFI) following dosing with example compounds. […] In FIG. 6A-FIG. 6E, data represents mean±s.d. and representative of at least 2 experimental replicates.

human dermal fibroblasts = test: Human dermal fibroblast cells (hDFC) proliferation, cell viability assay (CellTiter-Glo, manual cell counting); conditions: hDFCs proliferation; control is DMSO
TK.6 lymphoblasts = test: In vitro genotoxicity: TK.6 micronuclei assay (FIG. 5B) and SOS chromotest (FIG. 5C); conditions: TK.6 micronuclei assay without S9, 24 hr, and SOS chromotest; across a concentration range
Protocol: as §1
TK.6 lymphoblasts are a cell line used for gene mutation analyses. TK.6 lymphoblasts are heterozygous for the thymidine kinase gene (TK) and enable the detection of forward mutations and chromosomal damage, which manifests as micronuclei. TK.6 lymphoblasts are detectable via flow cytometry. TK.6 cells were dosed with the compounds or a vehicle control (0.1% v/v DMSO) and cultured without S9 metabolic activation for 24 hr. FIG. 5A-FIG. 5E show the results of in vitro genotoxicity assay and the TK.6 micronucleus assay. FIG. 5A are example plots of TK.6 cells treated with compound V-1. Methyl methanesulfonate, a genotoxic, alkylating agent was used as a positive control for micronuclei detection. […] The SOS chromotest is a bacteria-based test for genotoxicity. […] Cells were treated with either the compounds or vehicle control containing correspondingly % v/v-matched amounts of DMSO. High represents 10 µg/mL while low represents 1 μg/mL. Tested compounds elicited no or minor caspase 3/7 activation at low and high concentrations. In FIG. 5A-FIG. 5E, data represents mean±s.d. and representative of at least 2 experimental replicates.

| Compound | skin sensitizing potential (Nrf2-ARE pathway activation) (Nrf2-ARE pathway) | Activity (Percent Increase Proliferation of hFDPCs (%)) (human dermal fibroblasts) | genotoxic transformation potential (TK.6 lymphoblasts) |
| --- | --- | --- | --- |
| CN(C)C(=O)COC(=O)c1ccc2[nH]c3c(c2c1)CCCC3 [IV-2, [2-(dimethylamino)-2-oxoethyl] 6,7,8,9-tetrahydro-5H-carbazole-3-carboxylate] | did not exhibit apparent Nrf2-ARE pathway activation | B (increased proliferation of hFDPCs equals to or larger than 1% and less than 4%) | mild genotoxicity at higher concentrations |
| CCOCCCn1c(=O)[nH]c2ccccc2c1=O [V-1, 3-(3-ethoxypropyl)-1H-quinazoline-2,4-dione] | did not exhibit apparent Nrf2-ARE pathway activation | C (increased proliferation of hFDPCs equals to or larger than 4% and less than 8%) | did not exhibit any genotoxic transformation potential |
